Bounds are passed on as bounds.

This test concerns the target T1, calpain-I isolated from human erythrocytes (Homo sapiens, UniProt P07384).
T1 construct: calpain-I—isolated from human erythrocytes; purchased Calbiochem 208713; host or cells: human erythrocytes (native tissue isolate)
T1 sequence (P07384 1-714): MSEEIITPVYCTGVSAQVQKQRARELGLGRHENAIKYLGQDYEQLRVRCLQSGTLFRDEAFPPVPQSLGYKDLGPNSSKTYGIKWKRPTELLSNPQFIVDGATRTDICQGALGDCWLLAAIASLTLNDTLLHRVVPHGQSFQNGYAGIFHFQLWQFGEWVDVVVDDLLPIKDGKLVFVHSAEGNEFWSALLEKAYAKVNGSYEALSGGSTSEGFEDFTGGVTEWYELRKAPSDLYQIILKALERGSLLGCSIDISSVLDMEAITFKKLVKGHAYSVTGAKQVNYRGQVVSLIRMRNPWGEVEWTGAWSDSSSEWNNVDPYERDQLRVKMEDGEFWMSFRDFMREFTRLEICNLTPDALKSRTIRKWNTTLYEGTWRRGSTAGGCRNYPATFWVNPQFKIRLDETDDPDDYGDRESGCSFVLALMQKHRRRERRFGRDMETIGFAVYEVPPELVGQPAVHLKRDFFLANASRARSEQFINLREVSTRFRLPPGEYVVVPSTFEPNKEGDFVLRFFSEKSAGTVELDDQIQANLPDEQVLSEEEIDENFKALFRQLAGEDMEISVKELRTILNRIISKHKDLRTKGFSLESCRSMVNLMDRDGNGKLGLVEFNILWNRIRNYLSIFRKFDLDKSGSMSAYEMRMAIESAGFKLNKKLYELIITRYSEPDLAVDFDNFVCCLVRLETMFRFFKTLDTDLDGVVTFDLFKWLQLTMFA
T1 sequence (P04632 1-268 partner): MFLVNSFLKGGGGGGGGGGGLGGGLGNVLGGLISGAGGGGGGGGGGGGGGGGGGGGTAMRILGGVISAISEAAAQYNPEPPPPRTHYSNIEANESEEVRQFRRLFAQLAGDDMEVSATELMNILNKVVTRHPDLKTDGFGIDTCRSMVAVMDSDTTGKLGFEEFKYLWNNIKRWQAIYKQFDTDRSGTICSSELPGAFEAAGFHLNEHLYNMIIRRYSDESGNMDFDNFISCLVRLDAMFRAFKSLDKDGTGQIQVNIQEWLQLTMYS
The test can be described thus: Calpain I enzyme inhibition, kinetic fluorescence assay. Type of test: biochemical. Conditions: apparent Ki from IC50 by Cheng-Prussoff; pH 7.3, room temperature. On the procedure: The following solutions and buffers were employed: • HBS (for 40 ml): 800 μl 1M HEPES; 2.16 ml 100 mM KCl; 4.8 ml 1M NaCl; 3.59 ml 5% glucose; 60 μl 1M MgSO4; 400 μl 100 mM Na pyruvate, 28.19 ml water; pH 7.2-7.5. • lysis buffer (for 20 ml): 400 μl 1M Tris pH 8.2; 2.74 ml 1M NaCl; 520 μl 0.5M EDTA; 2 ml 10% triton X-100; 0.8 ml (=1:25) CompletePlus (1 tablet/2 ml H2O); 200 μl 100 mM Pefabloc; 13.34 ml water, pH 8.2. • TBST (10×) (for 1I): 100 mM Tris (12.1 g); 1.5M NaCl (87 g); 1% Tween 20 (10 g), adjusted to pH 8. I. Enzyme Inhibition In Vitro: • Testing for blockade of the corresponding enzymic activities was carried out by means of kinetic fluorescence assays (excitation 390 nm, emission 460 nm). • Apparent Ki values were calculated from the experimentally determined IC50 values by the Cheng-Prussoff relation assuming a reversible competitive enzyme inhibition. The Km values of the substrates used under the assay conditions indicated above were: 90 μM (Z-Phe-Arg-AMC, cathepsin B), 10 μM (Z-Gly-Pro-Arg-AMC, cathepsin K), 2 μM (Z-Phe-Arg-AMC, cathepsin L), and 30 μM (Z-Val-Val-Arg-AMC, cathepsin S). • The indicated Ki values are averages of the inhibition constants calculated on the basis of 2 to 4 independent dose-effect plots. • The following assays were used: • 1. Calpain I: • 20 nM calpain-I—isolated from human erythrocytes (Calbiochem #208713), 100 μM Suc-Leu-Tyr-AMC (Bachem #I-1355) as substrate in buffer with 62 mM imidazole, 0.3 mM CaCl2, 0.10% CHAPS, 0.05% BSA, 1 mM DTT at pH 7.3 and room temperature. • 2. Cathepsin B: • 0.25 nM cathepsin B—isolated from human liver (Calbiochem #219362), 100 μM Z-Phe-Arg-AMC (Bachem #I-1160) as substrate 50 mM MES, 2 mM EDTA, 0.05% Brij 35, 2.5 mM L-cysteine, pH 6.0, room temperature. • 3. Cathepsin K: • 3 nM cathepsin K—activated from recombinant human procathepsin K from E. coli (Calbiochem #342001), 10 μM Z-Gly-Pro-Arg-AMC (Biomol #P-142) as substrate in 50 mM MES, 2 mM EDTA, 0.05% Brij 35, 2.5 mM L-cysteine, pH 6.0, room temperature. • 4. Cathepsin L: • 1 nM cathepsin L—isolated from human liver (Calbiochem #219402), 2 μM Z-Phe-Arg-AMC (Bachem #I-1160) as substrate in 50 mM MES, 2 mM EDTA, 0.05% Brij 35, 2.5 mM L-cysteine, pH 6.0, room temperature. • 5. Cathepsin S: • 0.5 nM recombinant human cathepsin S from E. coli (Calbiochem #219343), 20 μM Z-Val-Val-Arg-AMC (Bachem #I-1540) as substrate in 50 mM MES, 2 mM EDTA, 0.05% Brij 35, 2.5 mM L-cysteine, pH 6.0, room temperature. • The results of the in vitro determination are indicated in Table 2. The following abbreviations are used in Table 2: • The “Calpain activity” column, ++ stands for a calpain Ki (Ki(calpain)) of ≦40 nM, + means: 40 nM<Ki(Calpain)≦100 nM, 0 means 100 nM<Ki(Calpain)≦1 μM, − means 1 μM<Ki(Calpain)≦10 μM, −− means Ki(Calpain)>10 μM. • The “Sel. cat. B” column indicates the Ki(cathepsin B)/Ki(calpain) ratio. In this connection, ++ means a Ki(cathepsin B)/Ki(calpain) ratio of ≧30 and + means≦10≦Ki(cathepsin B)/Ki(calpain)<30. • The “Sel. cat. K” column indicates the Ki(cathepsin K)/Ki(calpain) ratio. In this connection, ++ means a Ki(cathepsin K)/Ki(calpain) ratio of ≧30 and + means 10≦Ki(cathepsin K)/Ki(calpain)<30. • The “Sel. cat. L” column indicates the Ki(cathepsin L)/Ki(calpain) ratio. In this connection, ++ means a Ki(cathepsin L)/Ki(calpain) ratio of ≧50 and + means 30≦Ki(cathepsin L)/Ki(calpain)<50. • The “Sel. cat. S” column indicates the Ki(cathepsin S)/Ki(calpain) ratio. […]

`NC(=O)C1(C(Cc2ccccc2)NC(=O)c2cccnc2-n2ccc(-c3cccc(C(F)(F)F)c3)n2)OCCO1` (stereo not shown) [Compound I-2, N-{1-[2-(Aminocarbonyl)-1,3-dioxolan-2-yl]-2-phenylethyl}-2-{3-[3-(trifluoromethyl)phenyl]-1H-pyrazol-1-yl}nicotinamide]: the Ki was > 10 µM.
